Experimental data as given in PubChem BioAssay (NCI).
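Tested at 5 concentrations; 48 h exposure; 96-well plates; endpoints linearly interpolated, else capped at highest concentration. Here, GI50 denotes the concentration required for 50% inhibition of growth. TGI: concentration producing complete growth inhibition.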

Columns and labels:
Experiment in all cases: DTP human tumour cell line panel, 48 h
[1] = tested on: 786-0 renal
[2] = tested on: A498 renal
[3] = tested on: A549 NSCLC
[4] = tested on: ACHN renal
[5] = tested on: BT-549 breast
[6] = tested on: CAKI-1 renal
[7] = tested on: CCRF-CEM leukemia
[8] = tested on: COLO 205 colon
[9] = tested on: DU-145 prostate
[10] = tested on: EKVX NSCLC
[11] = tested on: HCC-2998 colon
[12] = tested on: HCT-116 colon
[13] = tested on: HCT-15 colon
[14] = tested on: HL-60(TB) leukemia
[15] = tested on: HOP-62 NSCLC
[16] = tested on: HOP-92 NSCLC
[17] = tested on: HS 578T breast
[18] = tested on: HT29 colon
[19] = tested on: IGROV1 ovarian
[20] = tested on: K-562 leukemia
[21] = tested on: KM12 colon
[22] = tested on: LOX IMVI melanoma
[23] = tested on: MALME-3M melanoma
[24] = tested on: MCF7 breast
[25] = tested on: MDA-MB-231 breast
[26] = tested on: MDA-MB-435
[27] = tested on: MOLT-4 leukemia
[28] = tested on: NCI-H226 lung
[29] = tested on: NCI-H23 lung
[30] = tested on: NCI-H460 lung
[31] = tested on: NCI-H522 lung
[32] = tested on: NCI/ADR-RES ovarian
[33] = tested on: OVCAR-3 ovarian
[34] = tested on: OVCAR-4 ovarian
[35] = tested on: OVCAR-5 ovarian
[36] = tested on: OVCAR-8 ovarian
[37] = tested on: PC-3 prostate
[38] = tested on: RPMI-8226 leukemia
[39] = tested on: RXF 393 renal
[40] = tested on: SF-268 CNS
[41] = tested on: SF-295 CNS
[42] = tested on: SF-539 CNS
[43] = tested on: SK-MEL-2 melanoma
[44] = tested on: SK-MEL-28 melanoma
[45] = tested on: SK-MEL-5 melanoma
[46] = tested on: SK-OV-3 ovarian
[47] = tested on: SN12C renal
[48] = tested on: SNB-19 CNS
[49] = tested on: SNB-75 CNS
[50] = tested on: SR leukemia
[51] = tested on: SW-620 colon
[52] = tested on: T-47D breast
[53] = tested on: TK-10 renal
[54] = tested on: U251 CNS
[55] = tested on: UACC-257 melanoma
[56] = tested on: UACC-62 melanoma
[57] = tested on: UO-31 renal

## O=[N+]([O-])c1ccc2nc(N/N=C/c3ccc(O)cc3)sc2c1
[1]
  GI50: 6.43 µM
  TGI: 60.5 µM
[2]
  GI50: 5.19 µM
  TGI: 27.2 µM
[3]
  GI50: 3.52 µM
  TGI: 29.4 µM
[4]
  GI50: 4.63 µM
  TGI: > 100 µM
[5]
  GI50: 12.3 µM
  TGI: > 100 µM
[6]
  GI50: 4.07 µM
  TGI: 81.5 µM
[7]
  GI50: 3.28 µM
  TGI: > 100 µM
[8]
  GI50: 12.4 µM
  TGI: 32.1 µM
[9]
  GI50: 3.96 µM
  TGI: 38.1 µM
[10]
  GI50: 7.37 µM
  TGI: > 100 µM
[11]
  GI50: 7.08 µM
  TGI: > 100 µM
[12]
  GI50: 2.89 µM
  TGI: > 100 µM
[13]
  GI50: 3.87 µM
  TGI: > 100 µM
[14]
  GI50: 3.6 µM
  TGI: 10.6 µM
[15]
  GI50: 8.82 µM
  TGI: 30.7 µM
[16]
  GI50: 2.17 µM
  TGI: 8.96 µM
[17]
  GI50: 3.7 µM
  TGI: 38.3 µM
[18]
  GI50: 8.31 µM
  TGI: 28 µM
[19]
  GI50: 3.84 µM
  TGI: > 100 µM
[20]
  GI50: 2.58 µM
  TGI: > 100 µM
[21]
  GI50: 2.72 µM
  TGI: 17.2 µM
[22]
  GI50: 3.08 µM
  TGI: 10.6 µM
[23]
  GI50: 19.7 µM
  TGI: > 100 µM
[24]
  GI50: 3.17 µM
  TGI: 70.5 µM
[25]
  GI50: 6.06 µM
  TGI: > 100 µM
[26]
  GI50: 3.61 µM
  TGI: 91.9 µM
[27]
  GI50: 2.96 µM
  TGI: > 100 µM
[28]
  GI50: 17.5 µM
  TGI: 62.8 µM
[29]
  GI50: 5.22 µM
  TGI: > 100 µM
[30]
  GI50: 4.18 µM
  TGI: 24.2 µM
[31]
  GI50: 1.49 µM
  TGI: 10.2 µM
[32]
  GI50: 3.86 µM
  TGI: > 100 µM
[33]
  GI50: 3.4 µM
  TGI: 14.6 µM
[34]
  GI50: 3.92 µM
  TGI: 51.8 µM
[35]
  GI50: 18.9 µM
  TGI: > 100 µM
[36]
  GI50: 3.75 µM
  TGI: 32.2 µM
[37]
  GI50: 4.51 µM
  TGI: 34.2 µM
[38]
  GI50: 2.56 µM
  TGI: 15.8 µM
[39]
  GI50: 10.9 µM
  TGI: 66.9 µM
[40]
  GI50: 4.84 µM
  TGI: 53.1 µM
[41]
  GI50: 5.61 µM
  TGI: > 100 µM
[42]
  GI50: 3.2 µM
  TGI: > 100 µM
[43]
  GI50: 4 µM
  TGI: 25.7 µM
[44]
  GI50: 9.43 µM
  TGI: 57.2 µM
[45]
  GI50: 2.88 µM
  TGI: 11.1 µM
[46]
  GI50: 5.37 µM
  TGI: 48.9 µM
[47]
  GI50: 4.4 µM
  TGI: > 100 µM
[48]
  GI50: 6.24 µM
  TGI: > 100 µM
[49]
  GI50: 5.16 µM
  TGI: 56.1 µM
[50]
  GI50: 3.07 µM
  TGI: 20.7 µM
[51]
  GI50: 4.91 µM
  TGI: 27.2 µM
[52]
  GI50: 3.01 µM
  TGI: 13.2 µM
[53]
  GI50: 3.97 µM
  TGI: 29.8 µM
[54]
  GI50: 4.56 µM
  TGI: 67.5 µM
[55]
  GI50: 9.09 µM
  TGI: 45 µM
[56]
  GI50: 4.46 µM
  TGI: 37 µM
[57]
  GI50: 8.22 µM
  TGI: > 100 µM
